The results in this text go back to patent publication EP4745153A1, “GLP-1, GIP AND GCG RECEPTOR […] USE THEREOF” (Jiangsu Hengrui Pharmaceuticals Co., Ltd., priority 2023, dated 2025).

Like-named read-outs stand apart in the source and are kept apart here. Starred links: 1 amine or outer side, 2 acyl side, 3 side chain; linkers in the order of their positions; H or OH if unused. Non-standard residues stand in square brackets, D forms with d. Residues, ends and D or L forms follow the SMILES beside them. Groups on a side chain read outwards from the residue. No end group written: not given here. *: point of attachment. C20 diacid = O=C(O)CCCCCCCCCCCCCCCCCCC(=O)*; γGlu = O=C(O)[C@H](CCC(=O)[*:2])N[*:1]; αMeL = CC(C)C[C@](C)(N)C(=O)O; αMeK = C[C@](N)(CCCCN)C(=O)O; αMeS = C[C@](N)(CO)C(=O)O; AEEA = NCCOCCOCC(=O)O; αS = not defined here; Aib = CC(C)(N)C(=O)O A value given as a limit tells only on which side of the number the result lay.

One data set concerns the target T1, human GIPR (Homo sapiens, UniProt P48546).
T1 construct: expressed in transfected cells; host or cells: CHO-K1 clonal cell line
T1 sequence (P48546 22-466): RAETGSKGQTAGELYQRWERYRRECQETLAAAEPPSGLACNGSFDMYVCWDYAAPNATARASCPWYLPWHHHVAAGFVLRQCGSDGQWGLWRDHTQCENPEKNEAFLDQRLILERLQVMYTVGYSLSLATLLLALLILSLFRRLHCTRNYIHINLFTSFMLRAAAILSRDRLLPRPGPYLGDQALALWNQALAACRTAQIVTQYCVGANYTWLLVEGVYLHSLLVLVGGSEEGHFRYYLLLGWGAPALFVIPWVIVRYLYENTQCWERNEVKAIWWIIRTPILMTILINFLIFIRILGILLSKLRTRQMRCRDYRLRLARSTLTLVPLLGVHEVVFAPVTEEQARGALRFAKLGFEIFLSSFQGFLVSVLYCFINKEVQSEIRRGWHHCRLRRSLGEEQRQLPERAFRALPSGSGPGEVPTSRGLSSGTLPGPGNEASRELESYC
The data set is described as follows: cAMP HTRF agonist activity assay in CHO-K1 cells expressing GIPR. The class given is cell-based. The method, boiled down: (§1)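 cAMP accumulation measured by competitive HTRF after 30 min incubation of polypeptides with 5000 receptor-expressing CHO-K1 cells/well at 37°C. Percent of maximal response versus concentration fitted to a four-parameter logistic to give relative EC50.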
(In general: In TR-FRET formats the signal depends on donor and acceptor labels being close together.)

The target of a further data set is T2, human GLP-1R (Homo sapiens, UniProt P43220).
T2 construct: expressed in transfected cells; host or cells: CHO-K1 clonal cell line
T2 sequence (P43220 24-463): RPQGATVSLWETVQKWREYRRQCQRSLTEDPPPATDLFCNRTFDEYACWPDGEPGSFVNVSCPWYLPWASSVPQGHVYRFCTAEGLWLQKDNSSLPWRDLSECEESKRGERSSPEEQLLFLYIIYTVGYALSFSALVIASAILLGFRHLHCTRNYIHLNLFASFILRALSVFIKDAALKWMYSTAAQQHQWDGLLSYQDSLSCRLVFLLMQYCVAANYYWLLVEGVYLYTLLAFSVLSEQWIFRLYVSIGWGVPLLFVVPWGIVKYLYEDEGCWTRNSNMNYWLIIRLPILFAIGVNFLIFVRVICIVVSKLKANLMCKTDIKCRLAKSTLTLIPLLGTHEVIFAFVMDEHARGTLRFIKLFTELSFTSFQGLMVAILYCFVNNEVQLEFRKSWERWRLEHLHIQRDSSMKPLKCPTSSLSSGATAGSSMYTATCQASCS
The data set is described as follows: cAMP HTRF agonist activity assay in CHO-K1 cells expressing GLP-1R. The class given is cell-based. In short, it runs like this: as §1

Data set [1] is described as follows: Pharmacokinetics in mice after single intravenous injection. The note with it: mouse, in vivo, male C57 mice, single intravenous dose 200 nmol/kg, plasma. Also noted: species or system C57 mice. In short, it runs like this: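 Plasma concentrations were measured by positive-mode ESI LC-MS/MRM, with verapamil as internal standard, at time points from 5 min to 72 h. Samples came from three male C57 mice per compound, aged 4-6 weeks, dosed once intravenously with 200 nmol/kg in 1×PBS; PK parameters were derived with PKSolver.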

Data set [2] in a line: Solubility in the vehicle. The class given is physicochemical. The note with it: stated in the summary only, no test example.
Data set [3] is described as follows: In vivo efficacy in diet-induced obesity (DIO) mouse model. Further details: species or system C57BL/6J mice. To be noted: 10 nmol/kg subcutaneous once daily for 24 days, indicating good safety. An excerpt: In this example, a DIO mouse model established by high-fat diet induction was used to evaluate the effects on and improvement of obesity and diabetes-related indicators in DIO mice after subcutaneous injection of some of the compounds in the present disclosure.
4.1 Experimental methods: Obese male C57BL/6J mice (23-24 weeks old, obtained from Beijing Vital River Laboratory Animal Technology Co., Ltd.) induced by a high-fat diet were purchased. Six-week-old male C57BL/6J mice were fed a 60% high-fat diet (RD D12492) until their body weight reached 45-50g to obtain DIO model mice. After arriving at the facility and undergoing a week of acclimatization feeding, the animals were randomly divided into groups according to their body weight and administered vehicle (model group), LY3437943, Compound 15, Compound 16, Compound 17 and Compound 18 via subcutaneous injection in the neck. The compound was administered at a dose of 10 nmol/kg, and the frequency of administration was once daily via subcutaneous injection for 24 days. Each group contained 5 DIO mice. According to the experimental design, the body weight of each mouse was weighed and recorded daily at 3 pm or before administration, the average body weight of each group of mice was calculated, and a curve of body weight change over time was plotted. After the experiment, the fat and other organs of the mice were removed from various parts of the body, weighed, and recorded.

The nature of data set [4]: Physical stability of solution in the vehicle. It is filed as physicochemical. To be noted: incubation at 25 degrees Celsius for 28 days; stated in the description, no method given.
In data set [5] the target is T3, human glucagon receptor (human, UniProt P47871 26-477). The data set is described as follows: cell-based or functional assay.
T3 sequence (P47871 26-477): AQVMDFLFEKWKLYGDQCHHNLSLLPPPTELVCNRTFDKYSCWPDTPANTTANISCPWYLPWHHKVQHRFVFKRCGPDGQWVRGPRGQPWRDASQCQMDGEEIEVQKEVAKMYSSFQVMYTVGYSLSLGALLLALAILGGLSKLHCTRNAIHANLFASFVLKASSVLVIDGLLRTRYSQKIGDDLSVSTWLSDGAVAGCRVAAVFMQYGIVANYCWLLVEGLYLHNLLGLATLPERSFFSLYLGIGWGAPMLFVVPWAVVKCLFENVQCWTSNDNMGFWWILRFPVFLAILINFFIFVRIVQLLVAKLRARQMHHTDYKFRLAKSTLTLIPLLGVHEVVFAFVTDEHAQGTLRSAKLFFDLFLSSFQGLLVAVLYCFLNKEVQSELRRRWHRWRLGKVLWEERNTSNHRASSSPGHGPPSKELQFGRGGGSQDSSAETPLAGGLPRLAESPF
For data set [6], the target named is T4, human glucagon-like peptide-1 receptor (human, UniProt P43220 24-463). The data set is described as follows: cell-based or functional assay.
Target sequence in this assay (P43220 24-463): as the sequence (P43220 24-463) above
For data set [7], the target named is human glucose-dependent insulinotropic polypeptide receptor (human) (UniProt P48546). The data set is described as follows: cell-based or functional assay.
The target in data set [8] is T3, human glucagon receptor. Briefly: cell-based or functional assay. The source holds these as a separate data set.
The target of data set [9] is T4, human glucagon-like peptide-1 receptor. The data set is described as follows: cell-based or functional assay. This is another data set of the same source.
Data set [10] addresses T5, human glucose-dependent insulinotropic polypeptide receptor (human, UniProt P48546 22-466).
T5 sequence (looked up): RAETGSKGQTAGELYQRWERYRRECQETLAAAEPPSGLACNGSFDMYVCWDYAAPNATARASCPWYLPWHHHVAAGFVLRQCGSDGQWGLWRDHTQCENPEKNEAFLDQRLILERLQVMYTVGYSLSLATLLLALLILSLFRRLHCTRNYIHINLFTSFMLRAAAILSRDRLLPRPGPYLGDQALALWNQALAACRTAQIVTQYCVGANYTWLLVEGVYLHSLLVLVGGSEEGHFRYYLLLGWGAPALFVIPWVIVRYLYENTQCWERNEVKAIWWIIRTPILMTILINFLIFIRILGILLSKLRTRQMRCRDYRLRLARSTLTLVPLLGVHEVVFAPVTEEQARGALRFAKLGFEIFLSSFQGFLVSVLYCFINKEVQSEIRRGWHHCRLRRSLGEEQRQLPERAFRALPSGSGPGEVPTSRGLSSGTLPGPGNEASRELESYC
Briefly: cell-based or functional assay.

By EC50 is commonly meant the concentration giving half of the maximal effect. A higher EC50 goes with weaker potency. Broadly, the AUC(0-inf) is total exposure, with the tail of the curve extrapolated. `CC[C@H](C)[C@H](NC(=O)[C@H](CO)NC(=O)[C@H](Cc1ccc(O)cc1)NC(=O)[C@H](CC(=O)O)NC(=O)[C@H](CO)NC(=O)[C@@H](NC(=O)[C@H](Cc1ccccc1)NC(=O)[C@@H](NC(=O)CNC(=O)[C@H](Cc1c[nH]cn1)NC(=O)C(C)(C)NC(=O)[C@@H](N)Cc1c[nH]cn1)[C@@H](C)O)[C@@H](C)O)C(=O)N[C@@](C)(CC(C)C)C(=O)N[C@@H](CC(C)C)C(=O)N[C@@H](CCC(=O)O)C(=O)N[C@@H](CCCCNC(=O)COCCOCCNC(=O)COCCOCCNC(=O)CC[C@H](NC(=O)CCCCCCCCCCCCCCCCCCC(=O)O)C(=O)O)C(=O)N[C@@H](CCCCN)C(=O)N[C@@H](C)C(=O)N[C@@H](C)C(=O)N[C@@H](CCC(N)=O)C(=O)N[C@@H](CCC(=O)O)C(=O)N[C@@H](Cc1ccccc1)C(=O)N[C@H](C(=O)N[C@@H](CCC(=O)O)C(=O)N[C@@H](Cc1c[nH]c2ccccc12)C(=O)N[C@@H](CC(C)C)C(=O)N[C@@H](CC(C)C)C(=O)N[C@@H](C)C(=O)NCC(=O)NCC(=O)N1CCC[C@H]1C(=O)N[C@@H](CO)C(=O)N[C@@H](CO)C(=O)NCC(=O)N[C@@H](C)C(=O)N1CCC[C@H]1C(=O)N1CCC[C@H]1C(=O)N1CCC[C@H]1C(=O)N[C@@H](CO)C(N)=O)C(C)C` [Compound 0125] (H-H[Aib]HGTFTSDYSI[αMeL]LEK([AEEA-AEEA-γGlu-C20 diacid])KAAQEFVEWLLAGGPSSGAPPPS-NH2) came in with an EC50 at human GIPR of 2 pM. For the same molecule, it took 32 pM to reach a half-maximal effect at human GLP-1R (EC50). In data set [1], this molecule displayed an AUC(0-inf) of 96.1 µM·h and a C0 of 5.79 µM. Moreover, the clearance in [1] (read-out: CLp) was 2.1 mL/h/kg. For the same molecule, the half-life in data set [1] (read-out: T1/2 (converted)) is 14.6 h. Besides, in data set [2], the “solubility in the vehicle” value is given as ≥ 20 mg/mL. Moreover, the “final body weight relative to body weight of mice on a normal diet (Chow)” value in data set [3] is ≥ 80%.

Regarding “H-Aib-HGTFTSDYS-αK-LLE-K(-OEG-OEG-γGlu-C(O)-(CH2)18-COOH)-KAA-αS-EFVEWLIEGGPSSGAPPPS-NH2 (H[Aib]HGTFTSDYS[αMeK]LLEK([AEEA-AEEA-γGlu-C20 diacid])KAA[αS]EFVEWLIEGGPSSGAPPPS-NH2; reading uncertain; also: printed as H-Aib-HGTFTSDYS-αK-LLE-K(-OEG-OEG-γGlu-C(O)-(CH2)18-COOH)-KAA-αS-EFVEWLIEGGPSSGAPPPS-NH2) [Compound 0126]”, the “appearance of the solution in the vehicle” value in data set [4] is “remains clear and transparent”.

For the molecule “H-Aib-HGTFTSDYSI-αL-LE-K(-OEG-OEG-γGlu-C(O)-(CH2)18-COOH)-KAAQEFVEWLLAGGPSSGAPPPS-NH2 (H[Aib]HGTFTSDYSI[αMeL]LEK([AEEA-AEEA-γGlu-C20 diacid])KAAQEFVEWLLAGGPSSGAPPPS-NH2; N-terminus assumed; SMILES CC[C@H](C)[C@H](NC(=O)[C@H](CO)NC(=O)[C@H](Cc1ccc(O)cc1)NC(=O)[C@H](CC(=O)O)NC(=O)[C@H](CO)NC(=O)[C@@H](NC(=O)[C@H](Cc1ccccc1)NC(=O)[C@@H](NC(=O)CNC(=O)[C@H](Cc1c[nH]cn1)NC(=O)C(C)(C)NC(=O)[C@@H](N)Cc1c[nH]cn1)[C@@H](C)O)[C@@H](C)O)C(=O)N[C@@](C)(CC(C)C)C(=O)N[C@@H](CC(C)C)C(=O)N[C@@H](CCC(=O)O)C(=O)N[C@@H](CCCCNC(=O)COCCOCCNC(=O)COCCOCCNC(=O)CC[C@H](NC(=O)CCCCCCCCCCCCCCCCCCC(=O)O)C(=O)O)C(=O)N[C@@H](CCCCN)C(=O)N[C@@H](C)C(=O)N[C@@H](C)C(=O)N[C@@H](CCC(N)=O)C(=O)N[C@@H](CCC(=O)O)C(=O)N[C@@H](Cc1ccccc1)C(=O)N[C@H](C(=O)N[C@@H](CCC(=O)O)C(=O)N[C@@H](Cc1c[nH]c2ccccc12)C(=O)N[C@@H](CC(C)C)C(=O)N[C@@H](CC(C)C)C(=O)N[C@@H](C)C(=O)NCC(=O)NCC(=O)N1CCC[C@H]1C(=O)N[C@@H](CO)C(=O)N[C@@H](CO)C(=O)NCC(=O)N[C@@H](C)C(=O)N1CCC[C@H]1C(=O)N1CCC[C@H]1C(=O)N1CCC[C@H]1C(=O)N[C@@H](CO)C(N)=O)C(C)C) [Compound 0125]”, the “appearance of the solution in the vehicle” value in [4] is “remains clear and transparent”.

As to LY3437943 (peptide), in the data set with human glucagon receptor [5], the Activity against human GCGR (EC50 nM) is 0.412 nM. In data set [6], the Activity against human GLP-1R (EC50 nM) was determined as 0.08 nM. For the same molecule, in [7], the Activity against human GIPR (EC50 nM) amounted to 0.002 nM.

B1: Compound No. 0126 (peptide)
peptide: H[Aib]HGTFTSDYS[αMeK]LLEK([AEEA-AEEA-γGlu-C20 diacid])KAA[αMeS]EFVEWLIEGGPSSGAPPPS-NH2
modifications: N-terminus assumed
SMILES: CC[C@H](C)[C@H](NC(=O)[C@H](CC(C)C)NC(=O)[C@H](Cc1c[nH]c2ccccc12)NC(=O)[C@H](CCC(=O)O)NC(=O)[C@@H](NC(=O)[C@H](Cc1ccccc1)NC(=O)[C@H](CCC(=O)O)NC(=O)[C@](C)(CO)NC(=O)[C@H](C)NC(=O)[C@H](C)NC(=O)[C@H](CCCCN)NC(=O)[C@H](CCCCNC(=O)COCCOCCNC(=O)COCCOCCNC(=O)CC[C@H](NC(=O)CCCCCCCCCCCCCCCCCCC(=O)O)C(=O)O)NC(=O)[C@H](CCC(=O)O)NC(=O)[C@H](CC(C)C)NC(=O)[C@H](CC(C)C)NC(=O)[C@](C)(CCCCN)NC(=O)[C@H](CO)NC(=O)[C@H](Cc1ccc(O)cc1)NC(=O)[C@H](CC(=O)O)NC(=O)[C@H](CO)NC(=O)[C@@H](NC(=O)[C@H](Cc1ccccc1)NC(=O)[C@@H](NC(=O)CNC(=O)[C@H](Cc1c[nH]cn1)NC(=O)C(C)(C)NC(=O)[C@@H](N)Cc1c[nH]cn1)[C@@H](C)O)[C@@H](C)O)C(C)C)C(=O)N[C@@H](CCC(=O)O)C(=O)NCC(=O)NCC(=O)N1CCC[C@H]1C(=O)N[C@@H](CO)C(=O)N[C@@H](CO)C(=O)NCC(=O)N[C@@H](C)C(=O)N1CCC[C@H]1C(=O)N1CCC[C@H]1C(=O)N1CCC[C@H]1C(=O)N[C@@H](CO)C(N)=O
With B1, in the data set with human glucagon receptor [8], the “Activity against human GCGR (EC50 nM)” value worked out at 0.008 nM. Also, the “Activity against human GLP-1R (EC50 nM)” value in data set [9] turned out to be 0.008 nM. Also, in [10], the “Activity against human GIPR (EC50 nM)” value was 0.002 nM.
